Tests used:
Test in all cases: relative viability (nuclei count vs DMSO), 5 days (fraction); higher = more cells survive
[1] = system: LK-2
Procedure, shortened: (§1)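 Lung cancer cell lines were pin-tool dosed in 1536-well plates on the day after seeding, with either a lone drug or a fixed anchor-drug dose plus five library-drug doses (not always all listed) in √10 steps. Nuclei were counted on 4× images after 5 days. Relative viability is the ratio of treated-well to vehicle-well nuclei counts, with each value a median of duplicate plates.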

[2] = system: NCI-H1792
Procedure, shortened: as §1

[3] = system: EMC-BAC-2
Procedure, shortened: as §1

[4] = system: SW 1573
Procedure, shortened: as §1

[5] = system: SK-LU-1
Procedure, shortened: as §1

[6] = system: NCI-H727
Procedure, shortened: as §1

[7] = system: HOP-62
Procedure, shortened: as §1

[8] = system: NCI-H2009
Procedure, shortened: as §1

[9] = system: NCI-H3122
Procedure, shortened: as §1

[10] = system: NCI-H2228
Procedure, shortened: as §1

[11] = system: LXF-289
Procedure, shortened: as §1

[12] = system: LU99A
Procedure, shortened: as §1

[13] = system: A-427
Procedure, shortened: as §1

[14] = system: SK-MES-1
Procedure, shortened: as §1

[15] = system: NCI-H1793
Procedure, shortened: as §1

[16] = system: NCI-H1944
Procedure, shortened: as §1

[17] = system: SW 900
Procedure, shortened: as §1

[18] = system: COR-L23
Procedure, shortened: as §1

[19] = system: ABC-1
Procedure, shortened: as §1

[20] = system: NCI-H1993
Procedure, shortened: as §1

[21] = system: PC-3 [JPC-3]
Procedure, shortened: as §1

[22] = system: HARA
Procedure, shortened: as §1

[23] = system: NCI-H2170
Procedure, shortened: as §1

What does the source list for `Clc1ccc(Nc2nnc(Cc3ccncc3)c3ccccc23)cc1` [Vatalanib] + CC(=O)c1c(C)c2cnc(Nc3ccc(N4CCNCC4)cn3)nc2n(C2CCCC2)c1=O [Palbociclib] (partner 0.5 µM)?
relative viability ([1]; first compound 0.04 µM): 0.41; relative viability ([1]; first compound 0.1265 µM): 0.694; relative viability ([1]; first compound 0.4 µM): 0.796; relative viability ([1]; first compound 1.265 µM): 0.762; relative viability ([1]; first compound 4 µM): 0.748; relative viability ([2]; first compound 0.04 µM): 0.613; relative viability ([2]; first compound 0.1265 µM): 0.543; relative viability ([2]; first compound 0.4 µM): 0.637; relative viability ([2]; first compound 1.265 µM): 0.738; relative viability ([2]; first compound 4 µM): 0.687; relative viability ([3]; first compound 0.04 µM): 0.545; relative viability ([3]; first compound 0.1265 µM): 0.524; relative viability ([3]; first compound 0.4 µM): 0.563; relative viability ([3]; first compound 4 µM): 0.512; relative viability ([4]; first compound 0.1265 µM): 0.403; relative viability ([4]; first compound 0.4 µM): 0.461; relative viability ([4]; first compound 1.265 µM): 0.361; relative viability ([4]; first compound 4 µM): 0.368; relative viability ([5]; first compound 0.04 µM): 0.398; relative viability ([5]; first compound 0.1265 µM): 0.415; relative viability ([5]; first compound 0.4 µM): 0.499; relative viability ([5]; first compound 1.265 µM): 0.415; relative viability ([5]; first compound 4 µM): 0.385; relative viability ([6]; first compound 0.1265 µM): 0.611; relative viability ([6]; first compound 0.4 µM): 0.683; relative viability ([6]; first compound 1.265 µM): 0.66; relative viability ([6]; first compound 4 µM): 0.638; relative viability ([7]; first compound 0.04 µM): 0.459; relative viability ([7]; first compound 0.1265 µM): 0.436; relative viability ([7]; first compound 0.4 µM): 0.417; relative viability ([7]; first compound 1.265 µM): 0.45; relative viability ([7]; first compound 4 µM): 0.481; relative viability ([8]; first compound 0.04 µM): 0.245; relative viability ([8]; first compound 0.1265 µM): 0.203; relative viability ([8]; first compound 0.4 µM): 0.249; relative viability ([8]; first compound 1.265 µM): 0.24; relative viability ([8]; first compound 4 µM): 0.213; relative viability ([9]; first compound 0.04 µM): 0.163; relative viability ([9]; first compound 0.1265 µM): 0.213; relative viability ([9]; first compound 0.4 µM): 0.195; relative viability ([9]; first compound 1.265 µM): 0.237; relative viability ([9]; first compound 4 µM): 0.182; relative viability ([10]; first compound 0.04 µM): 0.795; relative viability ([10]; first compound 0.1265 µM): 0.838; relative viability ([10]; first compound 0.4 µM): 0.806; relative viability ([10]; first compound 1.265 µM): 0.765; relative viability ([10]; first compound 4 µM): 0.612; relative viability ([11]; first compound 0.04 µM): 0.611; relative viability ([11]; first compound 0.1265 µM): 0.544; relative viability ([11]; first compound 0.4 µM): 0.599; relative viability ([11]; first compound 1.265 µM): 0.585; relative viability ([11]; first compound 4 µM): 0.556; relative viability ([12]; first compound 0.04 µM): 0.418; relative viability ([12]; first compound 0.1265 µM): 0.383; relative viability ([12]; first compound 0.4 µM): 0.435; relative viability ([12]; first compound 1.265 µM): 0.355; relative viability ([12]; first compound 4 µM): 0.415; relative viability ([13]; first compound 0.04 µM): 0.568; relative viability ([13]; first compound 0.1265 µM): 0.482; relative viability ([13]; first compound 0.4 µM): 0.546; relative viability ([13]; first compound 4 µM): 0.508; relative viability ([14]; first compound 0.04 µM): 0.339; relative viability ([14]; first compound 0.1265 µM): 0.309; relative viability ([14]; first compound 0.4 µM): 0.347; relative viability ([14]; first compound 1.265 µM): 0.309; relative viability ([14]; first compound 4 µM): 0.305; relative viability ([15]; first compound 0.04 µM): 0.274; relative viability ([15]; first compound 0.1265 µM): 0.262; relative viability ([15]; first compound 0.4 µM): 0.324; relative viability ([15]; first compound 1.265 µM): 0.285; relative viability ([15]; first compound 4 µM): 0.319; relative viability ([16]; first compound 0.04 µM): 0.324; relative viability ([16]; first compound 0.1265 µM): 0.301; relative viability ([16]; first compound 0.4 µM): 0.364; relative viability ([16]; first compound 1.265 µM): 0.29; relative viability ([16]; first compound 4 µM): 0.319; relative viability ([17]; first compound 0.04 µM): 0.504; relative viability ([17]; first compound 0.1265 µM): 0.523; relative viability ([17]; first compound 0.4 µM): 0.534; relative viability ([17]; first compound 1.265 µM): 0.614; relative viability ([17]; first compound 4 µM): 0.547; relative viability ([18]; first compound 0.04 µM): 0.364; relative viability ([18]; first compound 0.1265 µM): 0.286; relative viability ([18]; first compound 0.4 µM): 0.322; relative viability ([18]; first compound 1.265 µM): 0.293; relative viability ([18]; first compound 4 µM): 0.297; relative viability ([19]; first compound 0.04 µM): 0.662; relative viability ([19]; first compound 0.1265 µM): 0.7; relative viability ([19]; first compound 0.4 µM): 0.892; relative viability ([19]; first compound 4 µM): 0.59; relative viability ([20]; first compound 0.04 µM): 0.872; relative viability ([20]; first compound 0.1265 µM): 0.653; relative viability ([20]; first compound 0.4 µM): 0.814; relative viability ([20]; first compound 1.265 µM): 0.562; relative viability ([20]; first compound 4 µM): 0.528; relative viability ([21]; first compound 0.04 µM): 0.515; relative viability ([21]; first compound 0.1265 µM): 0.549; relative viability ([21]; first compound 0.4 µM): 0.573; relative viability ([21]; first compound 1.265 µM): 0.538; relative viability ([21]; first compound 4 µM): 0.544; relative viability ([22]; first compound 0.04 µM): 0.227; relative viability ([22]; first compound 0.1265 µM): 0.361; relative viability ([22]; first compound 0.4 µM): 0.224; relative viability ([22]; first compound 1.265 µM): 0.244; relative viability ([22]; first compound 4 µM): 0.238; relative viability ([23]; first compound 0.04 µM): 0.415; relative viability ([23]; first compound 0.1265 µM): 0.443; relative viability ([23]; first compound 0.4 µM): 0.35; relative viability ([23]; first compound 1.265 µM): 0.376; relative viability ([23]; first compound 4 µM): 0.384

— the supplement of paper PMC10307832
